# Publication PMC7876453, “Targeting Indoleamine 2,3-Dioxygenase in Cancer Models Using the Novel Small Molecule Inhibitor NTRC 3883-0” (Frontiers in Immunology, 2021)
# Legend:
# CYP2D6 = biological target: T1, CYP2D6 (Homo sapiens, UniProt P10635); assay: CYP2D6 inhibition (P450-Glo); type: in vitro ADME; settings: 10 µM
# T1 construct: purchased Promega V9890
# Method: (§1) Full-length recombinant human and mouse IDO1 were expressed in Escherichia coli with a hexahistidine tag at the N-terminus, and purified by affinity chromatography to > 95% purity, as described ([8]). Human and mouse TDO containing a C-terminal hexahistidine tag were analogously expressed and purified to > 95% purity ([8]). The inhibitory activity of compounds was determined with the NFK GreenScreen assay technology under the conditions as described ([8]), except for the reaction buffer for IDO1, which was replaced by 50 mM NaH2PO4, pH 7.0, supplemented with 0.01% Tween-20 and 1% glycerol. Inhibition of the CYP3A4 and CYP2D6 enzymes was determined with the P450-Glo™ Screening System with Luciferin-IPA (Promega, #V9920 and V9890). For determination of IC50 values, the effect of inhibitors was determined in 10-point duplicate dose-response curves. Graphs were fitted to a four-parameter logistics equation in XLfit (ID Business Solutions, Ltd., Guildford, UK) from which IC50 values were calculated.
# dog whole blood = dog whole blood assay; type: cell-based; settings: Canis lupus familiaris
# SW48 (hTDO) = biological target: T2, SW48 (hTDO) (Homo sapiens, UniProt P48775); assay: cell-based assay, Trp-catabolizing activity in SW48 cells
# T2 construct: host or cells: SW48 cells
# T2 sequence (P48775 whole entry): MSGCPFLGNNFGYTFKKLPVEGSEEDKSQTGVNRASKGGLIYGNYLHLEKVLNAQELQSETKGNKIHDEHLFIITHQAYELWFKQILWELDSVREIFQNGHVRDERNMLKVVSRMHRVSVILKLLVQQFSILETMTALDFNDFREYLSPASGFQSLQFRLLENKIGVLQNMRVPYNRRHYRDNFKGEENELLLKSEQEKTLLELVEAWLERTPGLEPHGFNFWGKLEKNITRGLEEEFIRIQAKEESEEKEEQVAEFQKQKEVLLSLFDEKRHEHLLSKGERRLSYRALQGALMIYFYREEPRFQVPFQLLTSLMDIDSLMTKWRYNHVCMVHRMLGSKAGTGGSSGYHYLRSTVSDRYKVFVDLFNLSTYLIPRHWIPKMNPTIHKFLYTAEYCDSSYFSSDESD
# [1] = in vivo pharmacokinetics, dog; parameters: species or system Beagle dogs; settings: Beagle, plasma; for clearance / Vd: intravenous; for Vd: read-out: Vss
# Method: (§2) Pharmacokinetic properties of NTRC 3883-0 were determined in plasma following single oral (p.o.) and i.v. administration to male CD-1 mice (n = 6 per treatment group with three mice sampled per time point), Wistar rats (n = 3), cynomolgus monkey (n = 1) and Beagle dogs (n = 3). Formulations were prepared in DMSO, Kolliphor® EL, 5% D-mannitol in Elix water at a volume ratio of 1:1:8 for i.v. administration, and in 0.5% gelatin, 5% D-mannitol in Elix water for p.o. administration. Plasma samples were collected at eight to eleven time points up to 24 h after administration. Pharmacokinetic properties and required dosing in humans were predicted by allometric scaling by Karin Jorga Life Science Consulting (Basel, Switzerland) ( Figure S2 and Table S2 ).
# [2] = plasma protein binding, rat; type: in vitro ADME
# Method: Supplement DataSheet_1.docx, table 2: Table S2. Pharmacokinetic parameters of NTRC 3883-0 observed in mouse, rat, monkey and dog, and predicted for humans using allometric scaling. Data in bold are measured, while data in italics are calculated or predicted (for humans). The clearance (Cl) and volume of distribution at steady state (Vss | column: Rat
# [3] = plasma protein binding, human; type: in vitro ADME; settings: column Human (predicted)
# Method: Supplement DataSheet_1.docx, table 2: Table S2. Pharmacokinetic parameters of NTRC 3883-0 observed in mouse, rat, monkey and dog, and predicted for humans using allometric scaling. Data in bold are measured, while data in italics are calculated or predicted (for humans). The clearance (Cl) and volume of distribution at steady state (Vss | column: Human (predicted)
# B16F10-mIDO1 = B16F10-mIDO1 (Mus musculus, UniProt P28776); assay: cell-based assay, Trp-catabolizing activity in B16F10-mIDO1 cells
# Chain of B16F10-mIDO1 (P28776 whole entry): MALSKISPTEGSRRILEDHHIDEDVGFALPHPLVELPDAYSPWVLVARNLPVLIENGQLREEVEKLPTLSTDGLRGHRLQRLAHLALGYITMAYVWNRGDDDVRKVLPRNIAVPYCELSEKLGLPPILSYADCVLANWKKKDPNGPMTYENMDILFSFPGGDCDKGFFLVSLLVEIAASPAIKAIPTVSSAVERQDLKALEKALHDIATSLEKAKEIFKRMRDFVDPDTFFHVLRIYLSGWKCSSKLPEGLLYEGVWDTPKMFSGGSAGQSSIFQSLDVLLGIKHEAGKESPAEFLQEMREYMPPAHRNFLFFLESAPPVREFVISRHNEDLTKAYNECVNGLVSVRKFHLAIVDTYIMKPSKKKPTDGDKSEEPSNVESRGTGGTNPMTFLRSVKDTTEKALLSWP
# [4] = plasma protein binding, mouse; type: in vitro ADME
# Method: Supplement DataSheet_1.docx, table 2: Table S2. Pharmacokinetic parameters of NTRC 3883-0 observed in mouse, rat, monkey and dog, and predicted for humans using allometric scaling. Data in bold are measured, while data in italics are calculated or predicted (for humans). The clearance (Cl) and volume of distribution at steady state (Vss | column: Mouse
# [5] = in vivo pharmacokinetics, monkey; settings: cynomolgus monkey, plasma; for clearance / Vd: intravenous; for Vd: read-out: Vss
# Method: as §2
# [6] = tested on: B16F10-mIDO1 subline j19 in female B6D2F1 mice; assay: B16F10-mIDO1 syngeneic mouse model, intervention study; type: in vivo
# Description: For development of the mIDO1-overexpressing B16F10 mouse model, performed at Charles River Laboratories, female B6D2F1 mice were implanted subcutaneously with 1 × 10^6 parental B16F10 cells or B16F10-mIDO1 cells (subline i6 or j19) on day 0 with n = 10 mice per group. A tumor volume of 2000 mm^3 was used as the endpoint of the experiment for the individual animals. To determine the optimal inoculation cell concentration, mice were implanted with 3 × 10^5, 1 × 10^5 or 3 × 10^4 parental or mIDO1-overexpressing B16F10 cells (subline j19) with n = 5 mice per group. The same endpoint of the experiment was used as described above. […] For the intervention study, 3 x 10^5 cells of the B16F10-mIDO1 subline j19 were implanted on day 0, and treatment was started on day 3 with vehicle (DMSO, Kolliphor, 5% mannitol; […]. Four animals were excluded from analysis due to non-treatment-related deaths. Tumors and plasma were sampled 2 h post last dose.
# […]. After centrifugation, proteins were removed from the homogenized tissue supernatants and plasma samples by precipitation with methanol. The concentrations of inhibitor, Trp and Kyn were determined by LC-MS/MS.
# HEK-hTDO = HEK-hTDO (Homo sapiens, UniProt P48775); assay: cell-based assay, Trp-catabolizing activity in HEK-hTDO cells
# Chain of HEK-hTDO (P48775 whole entry): as the sequence (P48775 whole entry) above
# human TDO = biological target: T3, human TDO (Homo sapiens, UniProt P48775); assay: human TDO biochemical assay (NFK GreenScreen); settings: biochemical
# T3 construct: hexahistidine (C); made in house; host or cells: Escherichia coli
# T3 sequence (P48775 whole entry): as above
# Method: as §1
# hWB + IFNγ (hIDO1) = biological target: T4, hWB + IFNγ (hIDO1) (Homo sapiens, UniProt P14902); assay: human whole blood assay, Trp-catabolizing activity after IFNγ stimulation; type: cell-based; settings: human whole blood from healthy donors
# T4 construct: from tissue; host or cells: heparinized human whole blood from healthy donors, IFNγ-stimulated
# T4 sequence (P14902 whole entry): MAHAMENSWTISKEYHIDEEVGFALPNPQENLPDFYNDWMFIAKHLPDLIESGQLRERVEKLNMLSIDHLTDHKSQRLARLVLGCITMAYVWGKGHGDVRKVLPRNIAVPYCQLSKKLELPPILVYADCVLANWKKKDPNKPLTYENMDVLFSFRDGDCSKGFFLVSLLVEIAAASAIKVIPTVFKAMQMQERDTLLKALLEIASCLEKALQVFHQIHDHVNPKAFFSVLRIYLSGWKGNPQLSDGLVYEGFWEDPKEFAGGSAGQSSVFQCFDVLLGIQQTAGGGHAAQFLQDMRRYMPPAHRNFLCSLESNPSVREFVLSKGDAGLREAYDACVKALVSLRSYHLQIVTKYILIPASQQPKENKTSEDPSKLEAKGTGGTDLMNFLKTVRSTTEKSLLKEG
# [7] = 100 mg/kg p.o. b.i.d. from day 3
# [8] = 100 mg/kg p.o. b.i.d., 2 h post last dose
# T1 sequence (P10635 whole entry): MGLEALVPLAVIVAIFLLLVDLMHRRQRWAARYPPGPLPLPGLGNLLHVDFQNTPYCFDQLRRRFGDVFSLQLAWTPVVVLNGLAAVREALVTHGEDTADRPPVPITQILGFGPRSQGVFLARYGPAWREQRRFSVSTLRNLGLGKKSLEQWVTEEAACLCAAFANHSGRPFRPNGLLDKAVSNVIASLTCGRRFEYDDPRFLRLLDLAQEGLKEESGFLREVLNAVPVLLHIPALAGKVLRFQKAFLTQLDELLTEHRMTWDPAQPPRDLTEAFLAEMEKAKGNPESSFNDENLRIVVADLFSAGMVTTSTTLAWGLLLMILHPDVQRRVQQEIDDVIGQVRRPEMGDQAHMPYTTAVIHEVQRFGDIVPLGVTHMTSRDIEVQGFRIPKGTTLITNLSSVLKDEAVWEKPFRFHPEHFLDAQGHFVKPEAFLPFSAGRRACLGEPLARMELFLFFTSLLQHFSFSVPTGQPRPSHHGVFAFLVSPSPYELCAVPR
smiles,measurement,setting,value
O=C1CN(C(=O)c2c(F)cccc2F)[C@H](c2cccc(Br)c2)N1O [NTRC 3883-0],inhibition of CYP2D6 activity,CYP2D6,did not inhibit
same,IC90,dog whole blood,1 µM
same,inhibition at 31.6 µM,"SW48 (hTDO); SW48, @ 31,600 nM",< 20%
same,effect on Trp-catabolizing activity in SW48 (in words),SW48 (hTDO); constitutively expresses TDO,no effect
same,half-life,[1],2.8 h
same,clearance,[1],28.6 mL/min/kg
same,clearance,[1]; body weight 10 kg,286 mL/min
same,Vd,[1]; body weight 10 kg,13.6 L
same,Vd,[1],1.36 L/kg
same,bioavailability,"[1]; po, p.o. versus i.v., read-out: Bioavailability (F)",32%
same,fraction unbound,[2],0.15
same,fraction unbound,[3],0.26
same,IC50,B16F10-mIDO1,0.018 µM
same,times more potent compared to epacadostat in B16F10-mIDO1 assay,B16F10-mIDO1,5 times
same,fraction unbound,[4],0.46
same,half-life,[5],2.4 h
same,clearance,[5],37 mL/min/kg
same,clearance,"[5]; monkey, body weight 3.0 kg",111 mL/min
same,Vd,"[5]; monkey, body weight 3.0 kg",6.74 L
same,Vd,[5],2.25 L/kg
same,bioavailability,"[5]; po, monkey, p.o. versus i.v., read-out: Bioavailability (F)",49%
same,times lower intratumoral levels of Kyn compared to epacadostat,[6]; 100 mg/kg p.o. b.i.d.,3.6 times
same,tumor growth corrected for the variation in time until tumor establishment,[6]; [7],delay in tumor growth
same,tumor growth in comparison to vehicle-treated animals,[6]; [7],no effect
same,times lower inhibitor level in plasma compared to epacadostat,[6]; [8],1.8 times
same,times lower inhibitor level in the tumors compared to epacadostat,[6]; [8],2.2 times
same,intratumoral Trp levels,"[6]; 100 mg/kg p.o. b.i.d., LC-MS/MS",slightly more efficient in increasing Trp
same,effect on Trp-catabolizing activity in HEK-hTDO cells (in words),HEK-hTDO,no effect
same,inhibition at 31.6 µM,HEK-hTDO; read-out: inhibition HEK-hTDO,< 20%
same,inhibition at 31.6 µM,"human TDO; @ 31,600 nM, read-out: inhibition hTDO",< 20%
same,activity on human TDO (in words),human TDO; highest tested concentration 31.6 µM,inactive
same,IC50,hWB + IFNγ (hIDO1),0.378 µM
